Converted amounts (≈) assume the structure as drawn. Where only a bound is given, the exact number is not on record here.

The test system of data set [1] is Intraocular pressure (IOP), ocular hypertension. Briefly: Anti-glaucoma activity: intraocular pressure (IOP) in rabbits with betamethasone-induced ocular hypertension, non-contact tonometer. The following applies: for IOP Readings, right eye (treated): average of 6 determinations. It is filed as in vivo, Albino rabbit (New Zealand strain). From the text: An illustrative example of the biological activity of the preparation is presented. The anti-glaucoma activity of the forskolin composition was studied in albino rabbits. A 1% solution of Forskolin in water as described in example 8 was used for the experiments
Study design: Animal model: Albino rabbit Number of groups: 4 Number of animals in each group: 6 in treatment group and 2 in control group
Materials and methods: Six albino rabbits of New Zealand strain, of both sexes, weighing […] were chosen. The rabbits were housed in clean and well-ventilated open space. Each rabbit was fed with standard diet daily and water was administered ad libitum throughout the study.
Ocular hypertension was induced by the method reported by Bonomi et al (Invest Ophthalmol. 1976 September; 15(9):781-4.) The rabbits were given 0.3 ml subconjunctival injection of Betnesol containing betamethasone sodium 4 mg/ml, every day to each eye for a period of three weeks (the Intraocular pressure (IOP) at third week was maximum as per literature). Local anesthetic propracaine eye drops were used prior to subconjunctival injections.
In each rabbit the left eye was kept as control for glaucoma and the right eye was treated for glaucoma using Forskolin, Timolol, and the placebo.
For each treatment, the IOP readings were measured at intervals of 30 minutes up to 210 minutes using the non-contact tonometer (NCT).

A short description of data set [2]: Solubility of Forskolin / Isoforskolin in water containing cyclodextrin (HPLC of filtered solution). It counts as physicochemical. As to the method: To solubilize Forskolin using cyclodextrins, the chosen cyclodextrin and Forskolin are mixed in water in specific proportions. The aqueous solution is filtered to remove any undissoved particles to obtain a clear aqueous solution of Forskolin in water.
Forskolin (98.5% assay, 25 mg) was added to 1 ml water containing in the dissolved state 500 mg Hydroxy propyl β cyclodextrin, HPBCD, (˜50%) Suspension was agitated at 75 RPM in an isothermal shaker for 60 hours at temperature ˜30° C.
Forskolin (98.5% assay, 50 mg) was added to 1 ml water containing 500 mg Hydroxy propyl γ-cyclodextrin in the dissolved state. (HPGCD) (˜50%). Suspension was agitated at 75 RPM in an isothermal shaker for 60 hours at temperature ˜30° C.
Experiments were performed by “changing” the crystallinity of Forskolin by recrystallizing from methylene chloride and from ethyl acetate. Resulting “amorphous” Forskolin was used for complexation with Hydroxyropyl γ-cyclodextrin HPGCD. Forskolin (29.3 mg) recrystallized with methylene dichloride (Forskolin assay 99.0%) was added to 3 ml water containing 1.5 gram Hydroxy propyl γ-cyclodextrin, HPGCD (˜50%). Suspension was agitated at 75 RPM in an isothermal shaker for 160 hour at temperature 30° C.
Forskolin (30.3 mg) recrystallized with ethyl acetate (Forskolin assay 98.8%) was added to 3 ml water containing 1.5 gram Hydroxy propyl γ-cyclodextrin, HPGCD (˜50%). Suspension was agitated at 75 RPM in an isothermal shaker for 160 hour at temperature 30° C.
Forskolin (98.5% assay, 330 mg) was added to 10 ml water containing 4 g of RAMEBCD (˜40%). Suspension was agitated at 75 RPM in an isothermal shaker for 40 hours at temperature 30° C.
Solubility of Forskolin in water was determined at the different concentrations of RAMEBCD ranging from 5 to 66%.
A typical aqueous formulation of Forskolin with a cyclodextrin is prepared as follows, RAMEBCD, being used as the example of cyclodextrin RAMEBCD (100 g) is taken in a one liter flask with mechanical or magnetic stirring facility. Forskolin (5.5 g) was charged into the flask. Water (400 ml) is charged to the flask and the contents were agitated at room temperature. A clear solution is obtained. If any undissolved Forskolin particles are seen, they are resuspended and stirred. Benzalkonium chloride (50 mg) and Disodium EDTA (500 mg) are added and dissolved in the flask. The pH of the contents could be adjusted to the desired range with the help of 0.1N sodium hydroxide. (usually pH range 3.5 to 7.5). Calculated amount of sodium chloride solution is added to maintain the osmolarity of the solution equivalent to that of 0.9% sodium chloride. The total volume of the solution is made up to 500 ml after sterile filtration. A solution thus prepared has approximately 1% of Forskolin in the dissolved state. Other cyclodextrins also could be used and depending on the cyclodextrin used, the dissolved content of Forskolin in water differed.
Isoforskolin also could be used in place of Forskolin. In one preparation, Isoforskolin (50 mg) was suspended in water containing a suitable amount of a cyclodextrin, for example, R AMEBCD (20 g) in about 100 ml water.

The conditions of data set [3]: 25° C.; cited from earlier work.
Data set [4] is described as follows: Determination of the aqueous solubility of Forskolin (intrinsic solubility, HPLC). It is filed as physicochemical. As to the method: Determination of the aqueous solubility of Forskolin. Forskolin (300 mg) was dried at 105° C. for 6 hours. Dried Forskolin 200 mg was stirred with 100 ml water for 48 hours for the determination of intrinsic solubility at ambient temperatureResulting solution was filtered through 0.45 μm nylon filter and analyzed for the content of Forskolin by HPLC.

The nature of data set [5]: Dissolution in water of Forskolin-RAMEBCD residue obtained by evaporating acetone. It counts as physicochemical. The following applies: Forskolin 50 mg + RAMEBCD 1 gram from acetone, residue in 5 ml water. The method, then: Alternatively, the cyclodextrin and Forskolin in certain proportions are dissolved in a suitable solvent such as ethanol or acetone or ethyl acetate. The solvent is removed to leave behind a white powder. Such powder freely dissolves in water as the examples will illustrate. Further, additives to the aqueous solution of Forskolin can also be added. These additives are usually used for maintaining sterility, pH maintenance, maintenance of osmolarity etc.
Forskolin (50 mg) was dissolved in 5 ml acetone, and 1 gram of RAMEBCD was dissolved in 5 ml acetone separately. Both the solutions were mixed together and solvent acetone was evaporated under reduced pressure. Residue was dried and dissolved in 5 ml water. This residue dissolved very easily within 1 hour of stirring forming a clear colorless solution.

The conditions of data set [6]: polyvinylpyrrolidone and polyethyleneglycol-glyceryl tririicinoleate, U.S. Pat. No. 6,346,273; cited from earlier work.

As for `CC(C)(C)NC[C@H](O)COc1nsnc1N1CCOCC1` [Timolol], the “IOP Readings, right eye (treated)” value in data set [1] (time 0 mins) is 13 mmHg; in data set [1] (time 30 mins), 8 mmHg; in data set [1] (time 60 mins) it was 7 mmHg; in data set [1] (time 90 mins), 5 mmHg; in data set [1] (time 120 mins), 4 mmHg; in data set [1] (time 150 mins) it was 3.5 mmHg. In addition, the “IOP Readings, right eye (treated)” value came out at 4.5 mmHg in data set [1] (time 180 mins) and 6 mmHg in data set [1] (time 210 mins).

In the case of `C=C[C@@]1(C)CC(=O)[C@@]2(O)[C@](C)(O1)[C@@H](O)[C@@H](OC(C)=O)C1C(C)(C)CC[C@H](O)[C@@]12C` (some centres unmarked) [Isoforskolin], the “Isoforskolin present in filtered solution by HPLC” value in data set [2] (RAMEBCD (20 g) in about 100 ml water, room temperature) is “approximately 0.5%”.

As for `OC[C@H]1O[C@@H]2O[C@H]3[C@H](O)[C@@H](O)[C@@H](O[C@H]4[C@H](O)[C@@H](O)[C@@H](O[C@H]5[C@H](O)[C@@H](O)[C@@H](O[C@H]6[C@H](O)[C@@H](O)[C@@H](O[C@H]7[C@H](O)[C@@H](O)[C@@H](O[C@H]8[C@H](O)[C@@H](O)[C@@H](O[C@H]9[C@H](O)[C@@H](O)[C@@H](O[C@H]%10[C@H](O)[C@@H](O)[C@@H](O[C@H]1[C@H](O)[C@H]2O)O[C@@H]%10CO)O[C@@H]9CO)O[C@@H]8CO)O[C@@H]7CO)O[C@@H]6CO)O[C@@H]5CO)O[C@@H]4CO)O[C@@H]3CO` [δ-cyclodextrin], the Water solubility in data set [3] was 8.19 g/100 ml.

As to `C=C[C@@]1(C)CC(=O)[C@]2(O)[C@@]3(C)[C@@H](O)CCC(C)(C)[C@@H]3[C@H](O)[C@H](OC(C)=O)[C@@]2(C)O1` [Forskolin], the “Concentration of Forskolin solution in water in the absence of cyclodextrin” value in data set [4] (no cyclodextrin) is given as “about 0.001%”. The “Content of Forskolin by HPLC (intrinsic solubility in water)” value in data set [4] (stirred 48 hours, ambient temperature, 0.45 μm filtered) came to 0.001 % w/v. In data set [4] (thermodynamic from solid, water, stirred 48 hours, ambient temperature, 0.45 μm filtered, read-out: Content of Forskolin by HPLC (intrinsic solubility in water)), the solubility at 48 h came out at 10 µg/mL (≈ 24.4 µM). The “% Forskolin w/v (solubility in water)” value in data set [2] (5% RAMEBCD) was 0.09 % w/v; in data set [2] (10% RAMEBCD), 0.272 % w/v; in data set [2] (15% RAMEBCD), 0.767 % w/v; in data set [2] (20% RAMEBCD), 1.15 % w/v; in data set [2] (40% RAMEBCD) it was 2.746 % w/v; in data set [2] (53.28% RAMEBCD) it was 4.165 % w/v. The “% Forskolin w/v (solubility in water)” value in data set [2] (66.6% RAMEBCD) was 5.029 % w/v. In addition, in data set [2] (Example 8 formulation: RAMEBCD 100 g, Forskolin 5.5 g, made up to 500 ml, room temperature), the “Forskolin in the dissolved state in the aqueous formulation” value is “approximately 1%”. Further, the “Time of stirring for the residue to dissolve in water forming a clear colorless solution” value in data set [5] was at most 1 h. Moreover, the “Anti-glaucoma activity (conclusion)” value in data set [1] (1% solution of Forskolin in water as in example 8) is recorded as “anti-glaucoma activity comparable to Timolol”. Also, the “IOP Readings, right eye (treated)” value in data set [1] (time 0 mins) is 14 mmHg; in data set [1] (time 30 mins) it was 7 mmHg; in data set [1] (time 60 mins) it was 6.5 mmHg; in data set [1] (time 90 mins) it was 4.5 mmHg; in data set [1] (time 120 mins), 5 mmHg; in data set [1] (time 150 mins) it was 6 mmHg. Also, the “IOP Readings, right eye (treated)” value is 7 mmHg in data set [1] (time 180 mins) and 7.5 mmHg in data set [1] (time 210 mins). Further, in data set [6], the “Maximum solubility of Forskolin achieved” value is on record as 0.2%.
